Test results as given in US8952024B2, “Herbicidal pyrimidone derivatives” (E I du Pont de Nemours and Company, priority 2009, dated 2015).

Tests used:
Assay type in all cases: in vivo
[1] = system: canarygrass (Phalaris minor); test: Test B postemergence plant response
In short: (§1)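 Plants at the 1- to 4-leaf stage (2 to 18 cm tall), grown in pots of peat moss/vermiculite medium with wetting agent and starter nutrients, received postemergence applications of test chemicals. After 13 to 15 days in a greenhouse, injury was rated visually against untreated controls on a 0 (no effect) to 100 (complete control) scale.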

[2] = system: windgrass (Apera spica-venti); test: Test B postemergence plant response
In short: as §1

[3] = system: chickweed (Stellaria media); test: Test B postemergence plant response
In short: as §1

[4] = system: winter barley (Hordeum vulgare); test: Test B postemergence plant response
In short: as §1

[5] = system: giant foxtail (Setaria faberii); test: Test B pre-/postemergence plant response
In short: (§2)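 Greenhouse herbicide screen. Pre- and postemergence (1- to 4-leaf) spray of compound in solvent/surfactant mixture; loam–sand soil for pre, peat/vermiculite medium for post. Visual control rating 0–100 at 13 to 15 days after treatment.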

kochia (Kochia scoparia) = test: Test B pre-/postemergence plant response
In short: as §2

wild oat (Avena fatua) = test: Test B pre-/postemergence plant response
In short: as §2

[6] = system: johnsongrass (Sorghum halepense); test: Test B pre-/postemergence plant response
In short: as §2

[7] = system: blackgrass (Alopecurus myosuroides); test: Test B pre-/postemergence plant response
In short: as §2

[8] = system: cocklebur (Xanthium strumarium); test: Test B pre-/postemergence plant response
In short: as §2

corn (Zea mays) = test: Test B pre-/postemergence plant response
In short: as §2

soybean (Glycine max) = test: Test B pre-/postemergence plant response
In short: as §2

[9] = system: morningglory (Ipomoea coccinea); test: Test B pre-/postemergence plant response
In short: as §2

[10] = system: bermudagrass (Cynodon dactylon); test: Test B pre-/postemergence plant response
In short: as §2

[11] = 31 g ai/ha, postemergence, scale 0 to 100, 0 is no effect, 100 is complete control
[12] = Postemergence, 62 g ai/ha, scale 0 (no effect) to 100 (complete control), 13 to 15 days
[13] = Postemergence, 125 g ai/ha, visual rating after 13 to 15 days, scale 0 (no effect) to 100 (complete control)
[14] = Postemergence, 250 g ai/ha, scale 0 to 100 (0 no effect, 100 complete control)
[15] = 250 g ai/ha, Preemergence, 0 to 100 scale
[16] = Preemergence, 31 g ai/ha, scale 0 to 100 (0 no effect, 100 complete control)
[17] = Preemergence, 62 g ai/ha, scale 0 to 100 (0 no effect, 100 complete control)
[18] = Preemergence, 125 g ai/ha, scale 0 to 100, 0 no effect, 100 complete control

O=C1CCCC(O)=C1C(=O)c1cnc(-c2ccsc2)n(-c2ccccc2)c1=O [Compound 56]
40: Plant response rating, Canarygrass [1, 13] | Plant response rating, Canarygrass [1, 14] | Plant response rating, Windgrass [2, 12] | Plant response rating, Foxtail, Giant [5, 17] | Plant response rating, Oat, Wild (wild oat (Avena fatua); [13])
45: Plant response rating, Oat, Wild (wild oat (Avena fatua); [14]) | Plant response rating, Johnsongrass [6, 17] | Plant response rating, Corn (corn (Zea mays); [11]) | Plant response rating, Morningglory [9, 18]
85: Plant response rating, Windgrass [2, 14] | Plant response rating, Foxtail, Giant [5, 13] | Plant response rating, Johnsongrass [6, 13] | Plant response rating, Soybean (soybean (Glycine max); [11]) | Plant response rating, Soybean (soybean (Glycine max); [12]) | Plant response rating, Bermudagrass [10, 12]
70: Plant response rating, Corn (corn (Zea mays); [14])
75: Plant response rating, Foxtail, Giant [5, 11] | Plant response rating, Foxtail, Giant [5, 18] | Plant response rating, Cocklebur [8, 13] | Plant response rating, Bermudagrass [10, 11]
100: Plant response rating, Kochia (kochia (Kochia scoparia); [13]) | Plant response rating, Kochia (kochia (Kochia scoparia); [14]) | Plant response rating, Johnsongrass [6, 14] | Plant response rating, Morningglory [9, 13] | Plant response rating, Morningglory [9, 14] | Plant response rating, Bermudagrass [10, 15] | Plant response rating, Bermudagrass [10, 13] | Plant response rating, Bermudagrass [10, 14] | Plant response rating, Bermudagrass [10, 17] | Plant response rating, Bermudagrass [10, 18]
55: Plant response rating, Johnsongrass [6, 11] | Plant response rating, Johnsongrass [6, 18] | Plant response rating, Cocklebur [8, 12]
10: Plant response rating, Barley [4, 12] | Plant response rating, Johnsongrass [6, 16] | Plant response rating, Blackgrass [7, 12]
95: Plant response rating, Chickweed [3, 12] | Plant response rating, Foxtail, Giant [5, 14] | Plant response rating, Kochia (kochia (Kochia scoparia); [12]) | Plant response rating, Cocklebur [8, 14] | Plant response rating, Soybean (soybean (Glycine max); [13])
98: Plant response rating, Chickweed [3, 13] | Plant response rating, Chickweed [3, 14] | Plant response rating, Soybean (soybean (Glycine max); [14]) | Plant response rating, Bermudagrass [10, 16]
90: Plant response rating, Chickweed [3, 11] | Plant response rating, Kochia (kochia (Kochia scoparia); [11])
60: Plant response rating, Windgrass [2, 13]
0: Plant response rating, Canarygrass [1, 11] | Plant response rating, Barley [4, 11] | Plant response rating, Foxtail, Giant [5, 16] | Plant response rating, Oat, Wild (wild oat (Avena fatua); [16]) | Plant response rating, Oat, Wild (wild oat (Avena fatua); [17]) | Plant response rating, Oat, Wild (wild oat (Avena fatua); [18]) | Plant response rating, Blackgrass [7, 11] | Plant response rating, Blackgrass [7, 16] | Plant response rating, Blackgrass [7, 17] | Plant response rating, Blackgrass [7, 18] | Plant response rating, Cocklebur [8, 15] | Plant response rating, Cocklebur [8, 16] | Plant response rating, Cocklebur [8, 17] | Plant response rating, Cocklebur [8, 18] | Plant response rating, Corn (corn (Zea mays); [15]) | Plant response rating, Corn (corn (Zea mays); [16]) | Plant response rating, Corn (corn (Zea mays); [17]) | Plant response rating, Corn (corn (Zea mays); [18]) | Plant response rating, Morningglory [9, 16] | Plant response rating, Morningglory [9, 17]
5: Plant response rating, Oat, Wild (wild oat (Avena fatua); [11]) | Plant response rating, Blackgrass [7, 15] | Plant response rating, Cocklebur [8, 11]
65: Plant response rating, Corn (corn (Zea mays); [12]) | Plant response rating, Corn (corn (Zea mays); [13])
30: Plant response rating, Canarygrass [1, 12] | Plant response rating, Windgrass [2, 11] | Plant response rating, Barley [4, 13]
80: Plant response rating, Foxtail, Giant [5, 15] | Plant response rating, Foxtail, Giant [5, 12] | Plant response rating, Johnsongrass [6, 15] | Plant response rating, Johnsongrass [6, 12] | Plant response rating, Soybean (soybean (Glycine max); [18])
20: Plant response rating, Oat, Wild (wild oat (Avena fatua); [12]) | Plant response rating, Blackgrass [7, 13] | Plant response rating, Blackgrass [7, 14] | Plant response rating, Soybean (soybean (Glycine max); [16])

O=C1CCCC(O)=C1C(=O)c1cnc(-c2ccccc2)n(CC2CCCO2)c1=O (stereo not shown) [Compound 59]
45: Plant response rating, Kochia (kochia (Kochia scoparia); [13]) | Plant response rating, Kochia (kochia (Kochia scoparia); [17])
55: Plant response rating, Oat, Wild (wild oat (Avena fatua); [13]) | Plant response rating, Morningglory [9, 18]
80: Plant response rating, Oat, Wild (wild oat (Avena fatua); [14]) | Plant response rating, Johnsongrass [6, 18] | Plant response rating, Morningglory [9, 13] | Plant response rating, Morningglory [9, 14]
10: Plant response rating, Barley [4, 13] | Plant response rating, Barley [4, 14] | Plant response rating, Kochia (kochia (Kochia scoparia); [12]) | Plant response rating, Blackgrass [7, 11] | Plant response rating, Cocklebur [8, 18] | Plant response rating, Bermudagrass [10, 16]
20: Plant response rating, Windgrass [2, 11]
30: Plant response rating, Oat, Wild (wild oat (Avena fatua); [11]) | Plant response rating, Blackgrass [7, 18]
5: Plant response rating, Canarygrass [1, 11] | Plant response rating, Canarygrass [1, 12]
50: Plant response rating, Canarygrass [1, 13] | Plant response rating, Morningglory [9, 12]
95: Plant response rating, Foxtail, Giant [5, 13] | Plant response rating, Foxtail, Giant [5, 14] | Plant response rating, Soybean (soybean (Glycine max); [12]) | Plant response rating, Soybean (soybean (Glycine max); [13]) | Plant response rating, Soybean (soybean (Glycine max); [14])
70: Plant response rating, Canarygrass [1, 14] | Plant response rating, Windgrass [2, 14]
35: Plant response rating, Blackgrass [7, 12]
90: Plant response rating, Foxtail, Giant [5, 12] | Plant response rating, Johnsongrass [6, 15] | Plant response rating, Cocklebur [8, 13] | Plant response rating, Soybean (soybean (Glycine max); [11]) | Plant response rating, Bermudagrass [10, 12]
98: Plant response rating, Chickweed [3, 12] | Plant response rating, Chickweed [3, 13] | Plant response rating, Kochia (kochia (Kochia scoparia); [15]) | Plant response rating, Bermudagrass [10, 15] | Plant response rating, Bermudagrass [10, 13] | Plant response rating, Bermudagrass [10, 17] | Plant response rating, Bermudagrass [10, 18]
0: Plant response rating, Barley [4, 11] | Plant response rating, Barley [4, 12] | Plant response rating, Foxtail, Giant [5, 16] | Plant response rating, Foxtail, Giant [5, 17] | Plant response rating, Kochia (kochia (Kochia scoparia); [16]) | Plant response rating, Oat, Wild (wild oat (Avena fatua); [16]) | Plant response rating, Oat, Wild (wild oat (Avena fatua); [17]) | Plant response rating, Oat, Wild (wild oat (Avena fatua); [18]) | Plant response rating, Blackgrass [7, 16] | Plant response rating, Blackgrass [7, 17] | Plant response rating, Cocklebur [8, 16] | Plant response rating, Cocklebur [8, 17] | Plant response rating, Corn (corn (Zea mays); [15]) | Plant response rating, Corn (corn (Zea mays); [12]) | Plant response rating, Corn (corn (Zea mays); [16]) | Plant response rating, Corn (corn (Zea mays); [17]) | Plant response rating, Corn (corn (Zea mays); [18]) | Plant response rating, Soybean (soybean (Glycine max); [17]) | Plant response rating, Soybean (soybean (Glycine max); [18]) | Plant response rating, Morningglory [9, 17]
100: Plant response rating, Chickweed [3, 14] | Plant response rating, Johnsongrass [6, 13] | Plant response rating, Johnsongrass [6, 14] | Plant response rating, Cocklebur [8, 14] | Plant response rating, Bermudagrass [10, 14]
60: Plant response rating, Windgrass [2, 12] | Plant response rating, Windgrass [2, 13] | Plant response rating, Foxtail, Giant [5, 18] | Plant response rating, Kochia (kochia (Kochia scoparia); [18]) | Plant response rating, Blackgrass [7, 14]
40: Plant response rating, Oat, Wild (wild oat (Avena fatua); [12]) | Plant response rating, Blackgrass [7, 15] | Plant response rating, Blackgrass [7, 13]
75: Plant response rating, Foxtail, Giant [5, 11] | Plant response rating, Foxtail, Giant [5, 15] | Plant response rating, Kochia (kochia (Kochia scoparia); [14]) | Plant response rating, Johnsongrass [6, 12] | Plant response rating, Cocklebur [8, 15] | Plant response rating, Corn (corn (Zea mays); [13]) | Plant response rating, Corn (corn (Zea mays); [14])
85: Plant response rating, Chickweed [3, 11] | Plant response rating, Cocklebur [8, 11] | Plant response rating, Cocklebur [8, 12]
